In brackets after ≈: the same amount, converted by molar mass.

For this data set the following is noted: buffer; pH 7.4; 200.0 µM.
Usually solubility (kinetic) stands for the concentration staying in solution when a stock, usually in DMSO, is diluted into the medium. Regarding `Cc1cccc(C)c1NC(=O)CN(C1CCCCC1)S(C)(=O)=O`, the solubility (kinetic) was greater than 50.8 µg/mL. Molecule `CCOC(=O)N1CCC(NS(=O)(=O)c2ccc(C)c(Cl)c2)CC1` displayed a kinetic solubility greater than 54.1 µg/mL.

In turn, `Cc1cc(C(=O)CN2C(=O)C(=O)N(CCC3=CCCCC3)C2=O)c(C)n1C` came in with a kinetic solubility of 11.5 µg/mL (≈ 31 µM).

Take `Cc1ccc(C(=O)CCC(=O)Nc2ccccc2F)cc1`: the kinetic solubility stood at 4.8 µg/mL (≈ 16.8 µM).

For the molecule `CC(=O)c1cccc(NC(=S)NCCc2ccc(F)cc2)c1`, the solubility (kinetic) was greater than 47.5 µg/mL. With `O=C(Nc1ccc(N2CCOCC2)cc1)c1c(F)cccc1Cl` the figure was 21.3 µg/mL (≈ 63.6 µM); with `O=C(NC1CCCCC1)c1cc(-c2ccc(Cl)cc2)on1`, 0.5 µg/mL (≈ 1.64 µM).

`COc1ccc(NC(=O)COc2ccc(C)cc2)c([N+](=O)[O-])c1` registered a kinetic solubility of less than 0.3 µg/mL.

`NC(=O)C1CCCN(C(=O)CCC(=O)c2cccs2)C1` (configuration not stated) registered a solubility (kinetic) greater than 44.2 µg/mL.

As for `O=C(NCc1ccc(F)cc1)C1CC(=O)N(C2CCCC2)C1` (configuration not stated), the solubility (kinetic) was greater than 45.7 µg/mL.

For the molecule `Cc1ccc(NC(=O)CN(C)CC(=O)Nc2ccccc2C#N)cc1`, the kinetic solubility was greater than 50.5 µg/mL.

`O=C(CCNC(=O)c1ccccc1Cl)NC1=NCCS1` returned a kinetic solubility of 42.8 µg/mL (≈ 137 µM). The figure for `CN(Cc1nc2ccccc2[nH]1)Cc1nc(CC2CC2)no1` is greater than 44.6 µg/mL; for `Cc1ccc(NC(=O)CN2C(=O)N/C(=C\c3cccnc3)C2=O)cc1` it is 5.2 µg/mL (≈ 15.5 µM). With `COCCNC(=S)Nc1ccccc1[N+](=O)[O-]` the figure was greater than 38.3 µg/mL. With `NC(=O)C1CCN(C(=S)NC2CC3C=CC2C3)CC1` (configuration not stated) the figure was greater than 41.9 µg/mL; with `CCN(CC)CC(O)CN1c2ccccc2Sc2ccccc21` (configuration not stated), 44.4 µg/mL (≈ 135 µM).

In the case of `NC(=O)CCn1ccc2ccccc21`, the kinetic solubility is greater than 28.2 µg/mL. The figure for `O=C(Nc1ccc(Cl)c(S(=O)(=O)N2CCOCC2)c1)C1CCCC1` is greater than 55.9 µg/mL; for `O=S(=O)(Nc1ccc(N2CCCCC2)cc1)c1ccc(F)cc1F` it is 41.3 µg/mL (≈ 117 µM); for `COc1cccc(N2CCN(C(=O)c3ccc(-c4ccccc4)cc3)CC2)c1` it is 0.8 µg/mL (≈ 2.15 µM).

Molecule `COc1ccc(CCNC2CCCCCC2)cc1` gave a solubility (kinetic) greater than 37.1 µg/mL. Molecule `O=S(=O)(Nc1ccc(Cl)cc1)c1cccc2nsnc12` registered a solubility (kinetic) greater than 48.9 µg/mL.

Molecule `COc1ccc(C(=O)Nc2cc([N+](=O)[O-])ccc2N2CCCC2)cc1` showed a solubility (kinetic) of 2.6 µg/mL (≈ 7.62 µM).

`Nc1cccc(Oc2ccc3c(c2)C(=O)N(CC2CCCO2)C3=O)c1` (configuration not stated) returned a solubility (kinetic) of 41.4 µg/mL (≈ 122 µM).

The molecule `O=S(=O)(NC1=NCCCCC1)c1ccccc1Cl` came in with a kinetic solubility greater than 43 µg/mL. `CC(C)c1ccc(C(N)=S)cc1` displayed a solubility (kinetic) of 25.3 µg/mL (≈ 141 µM).

For `CC(C(=O)Nc1ccc(C#N)cc1)N1CCN(C(=O)C2CC2)CC1` (configuration not stated), the solubility (kinetic) is greater than 49 µg/mL.

On to `Cc1ccc(F)c(NC(=O)CCOc2ccccc2C)c1`, for which the kinetic solubility stood at 25.5 µg/mL (≈ 88.7 µM).

Turning to `COc1cc(/C(O)=C(\C#N)c2nc3ccccc3[nH]2)cc(OC)c1OC`, the kinetic solubility came out at 7.1 µg/mL (≈ 20.2 µM). The figure for `Cc1nc2sc(C(=O)OC(C)C)c(N)c2c(C)c1C` is less than 0.3 µg/mL; for `O=C(NCCCNC(=O)c1cnccn1)c1cccc(Cl)c1` it is 47.1 µg/mL (≈ 148 µM); for `Cc1cc(F)ccc1NC(=S)NCCc1ccccc1` it is 22.5 µg/mL (≈ 78 µM).

The molecule `Cc1cnc(C(=O)OCc2cc(=O)n3c(C)cccc3n2)cn1` showed a kinetic solubility greater than 46.5 µg/mL. With `CCN(Cc1cnn(C)c1)Cc1nc(Cc2ccccc2Cl)no1` the figure was greater than 51.9 µg/mL. With `Cl.O=C(O)C1CCN(Cc2ccccn2)CC1` the figure was 34.4 µg/mL; with `CN(C)/C=C/C(=O)c1ccc(F)cc1F`, greater than 31.7 µg/mL; with `O=C1C(Cl)=C(NCc2cccnc2)C(=O)c2ccccc21`, 6.9 µg/mL (≈ 23.1 µM). In the case of `CCOC(=O)Nc1ccc(C(=O)c2ccncc2)cc1`, the solubility (kinetic) stood at 4 µg/mL (≈ 14.8 µM). Against the preceding molecule, the solubility kinetic is about 1.7-fold lower. With `CC1(C)CC(=O)C(C(O)c2ccc([N+](=O)[O-])cc2)C(C)(C)N1` (configuration not stated) the figure was 39.9 µg/mL (≈ 130 µM); with `COc1cccc(NC(=O)CN(C)C(=O)c2cccc(S(=O)(=O)N3CC4(C)CC3CC(C)(C)C4)c2)c1` (configuration not stated), 2 µg/mL (≈ 3.89 µM); with `CCN(CC)c1ccc(Nc2nc(-c3cccnc3)cs2)cc1`, less than 0.2 µg/mL. With `Cc1cc(Nc2ccc(C)c(Cl)c2)nc(N2CCOCC2)n1` the figure was 7.6 µg/mL (≈ 23.8 µM); with `CSc1ncccc1C(=O)Nc1cccc(C)n1`, greater than 38.9 µg/mL; with `CCc1ccc(C2NC(=O)c3ccccc3O2)cc1` (configuration not stated), 2.8 µg/mL (≈ 11.1 µM).

Molecule `O=C1CSC(=Nc2cccc([N+](=O)[O-])c2)N1` yielded a solubility (kinetic) greater than 35.6 µg/mL. With `Cc1ccsc1C(=O)OC(C)C(=O)NC1CCCCC1C` (configuration not stated) the figure was 6.4 µg/mL (≈ 20.7 µM); with `CCOc1ccccc1NC(=O)CN1C(=O)COc2ccc(C)cc21`, 2.4 µg/mL (≈ 7.05 µM); with `COc1ccc(/C=C/C(=O)O)cc1S(=O)(=O)NCc1cccnc1`, greater than 52.3 µg/mL. With `NC(=O)Cn1c(=O)n(-c2ccccc2)c(=O)c2oc3ccccc3c21` the figure was 2.6 µg/mL (≈ 7.75 µM); with `COc1ccc(CC(=O)Nc2cc(Cl)ccc2C(=O)O)cc1`, greater than 48 µg/mL; with `Cc1[nH]c2ccccc2c1C(=O)COC(=O)c1ccc[n+]([O-])c1`, 39.7 µg/mL (≈ 128 µM).
